Measurements as given in PMC9613470, “Diverse MarR bacterial regulators of auxin catabolism in the plant microbiome” (Nature Microbiology, 2022).

Biological target: T1, Enterobacter soli LF7 MarR_Es (Enterobacter soli, UniProt A0AAW8H3I9, A146S)
T1 sequence (A0AAW8H3I9 1-157 A146S): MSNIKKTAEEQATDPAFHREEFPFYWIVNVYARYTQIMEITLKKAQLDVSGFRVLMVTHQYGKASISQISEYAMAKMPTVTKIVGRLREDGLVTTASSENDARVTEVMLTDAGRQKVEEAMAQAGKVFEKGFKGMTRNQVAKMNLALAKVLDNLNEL
Test: ITC IAA binding to MarR_Es
Conditions: 25 °C, IacR, read-out: KD1
Protocol: All ITC measurements were performed at 25 °C using an Auto-ITC200 microcalorimeter (MicroCal/GE Healthcare). The buffer employed was 20 mM HEPES, pH 7.4, 50 mM NaCl and 0.5% dimethly sulfoxide (DMSO) for protein/ligand binding and 20 mM HEPES, pH 7.4 and 300 mM NaCl for DNA/protein binding experiments. For ligand binding experiments, the calorimetry cell (volume 200 ml) was loaded with MarR wild-type, mutant or homologue protein at a concentration of 50 μM. The syringe was loaded with a ligand concentration of 0.5 or 2 mM. […] A typical injection protocol included a single 0.2 μl first injection followed by 20 1.5 μl injections of the syringe sample into the calorimetry cell. The spacing between injections was kept at 180 s and the reference power at 8 μcal s^−1. The data were analysed using Origin for ITC version 7.0 software supplied by the manufacturer and fit well to a one-site binding model. Two independent ITC measurements were performed for each condition.

O=C(O)Cc1c[nH]c2ccccc12 [IAA, indole-3-acetic acid] gave a Kd of 2910 ± 96 nM.
